Laboratory results taken from article PMC5318439, “The Novel Toll-Like Receptor 2 Agonist SUP3 Enhances Antigen Presentation and T Cell Activation by Dendritic Cells” (Frontiers in Immunology, 2017).
Where a SMILES comes first, the peptide text is derived from it. The star is where a group is joined. X1 = CCCCCCCCCCCCCCNC(=O)OC[C@H](C*)OC(=O)NCCCCCCCCCCCCCC; Palmitoyl = CCCCCCCCCCCCCCCC(=O)*

Key:
[1] = Serum inflammatory cytokines after i.v. administration; assay type: in vivo, mice; details: 2 nmol per mouse i.v., 1 h, ELISA
Description: (§1) Splenic DCs (5 × 10^5 cells/mL) were stimulated by Pam3 (200 nM), SUP3 (200 nM), or CpG ODN 1668 (20 nM; Adipogen IAX-200-001) in the GM-CSF (20 ng/mL) supplemented medium for indicated periods. Cell culture supernatants were harvested at indicated time points and stored at −40°C. RAW 264.7 cells and GMDCs were stimulated by lipopolysaccharide (LPS) (20 ng/mL; Adipogen IAX-100-013), Pam3, or SUP3 (both at 200 nM) for 24 h. For in vivo administration, Pam3 (2 nmol per mouse), SUP3 (2 nmol per mouse), or LPS (1 µg per mouse) were intravenously (i.v.) injected via tail veins. Serum was obtained through tail vein bleeding and centrifuged after coagulation and stored at −40°C. Cytokines (IL-6, eBioscience 88-7064; TNFα, eBioscience 88-7324; IL-12p40, BioLegend 431604), chemokine (MIP1α, R&D Systems DY450-05), and total IgM (eBioscience, 88-50470) were quantified by ELISA kits following the instructions of manufacturers.
Figure 2 SUP3 induced more vigorous cytotoxic T lymphocytes (CTLs) responses than Pam3CSK4 without excessive production of inflammatory cytokines in vivo. […] The percentages of pentamer positive cells (CD19^− CD3^+ CD8^+ SIINFEKL/H-2Kb-Pentamer^+) in spleens, i.e., the OVA-specific CD8^+ T cells, were determined by flow cytometry (A) and the statistic calculation is presented in (B). […] “n.d.” indicates “not detected.” *p < 0.05, **p < 0.01. […]

CD11b^+ cDCs = assay: Cytokine production by purified CD11b+ cDCs (ELISA); assay type: cell-based, mice; details: 200 nM, GM-CSF 20 ng/mL, 24 h, compared with CpG 20 nM
Description: as §1
Figure 5 SUP3 enhanced antigen presentation ability of CD11b^+ conventional dendritic cells (cDCs) and production of antibodies against thymus-dependent (TD) antigens. […] Three days after immunization, division of OT-II CD4^+ T cells from inguinal lymph nodes were analyzed by flow cytometry (B). Absolute numbers of proliferated OT-II CD4^+ T cells were calculated in (C). […] (D) The division of OT-II cells was measured by reduced level of CFSE-labeling. […]

serum IL-6, TNFα, IL-12p40 and MIP1α levels [1] | Molecule | IL-6, TNFα, and MIP1α production by CD11b+ cDCs (CD11b^+ cDCs)
maintained at low levels | Pam3CSK4 [reference compound] | lower level
maintained at low levels | CCCCCCCCCCCCCCCC(=O)N[C@@H](CSC[C@@H](COC(=O)NCCCCCCCCCCCCCC)OC(=O)NCCCCCCCCCCCCCC)C(=O)NCC(=O)N[C@@H](CCCCN)C(=O)N[C@@H](CCCCN)C(=O)N[C@@H](CCCCN)C(=O)O [SUP3, (2S,5S,8S,14R,18R)-2,5,8-tris(4-aminobutyl)-4,7,10,13,21-pentaoxo-14-palmitamido-18-((tetradecylcarbamoyl)oxy)-20-oxa-16-thia-3,6,9,12,22-pentaazahexatriacontan-1-oic acid] (Palmitoyl-C(X1)GKKK-OH) | lower level
